According to patent publication US20220251124A1, “3,5-BIS(PHENYL)-1H-HETEROARYL DERIVATIVES AS MEDICAMENTS” (INSTITUTE OF BIOTECHNOLOGY CAS, V.V.I., priority 2019, published 2022):
Where two headings read alike, the source gives them in different places.

Columns and labels:
Type in all cases: cell-based
MCF7 cells = assay: crystal violet assay, cellular viability (cytostatic and cytotoxic effect), 48 hrs; details: for IC50: MCF7 (parental/control), crystal violet, read-out: IC50
Procedure: (§1) Compound 1 and a comparative compound deferasirox (DFX) were tested in their efficacy to kill/suppress proliferation of malignant breast cancer MCF7 cells representing estrogen-dependent type of breast cancer. Briefly, 10.000 cells per well were seeded in a 96-well plate on one day and the next day the tested compounds were added and incubated with the cells for 48 hrs. The cells were then fixed with 4% paraformaldehyde, stained with 0.05% crystal violet, washed with PBS, and solubilized in 1% SDS. The absorbance of the plate at 595 nm was then measured, quantifying the number of viable cells.

MDA-MB-231 cells = assay: crystal violet assay, cellular viability, 48 hrs; details: for IC50: MDA-MB-231, crystal violet, read-out: IC50
Procedure: as §1
Compound 1 and the comparative compound deferasirox were tested in their efficacy to kill/suppress proliferation of malignant MDA-MB-231 cancer cells representing hard to treat triple negative breast cancer. The procedure is identical to that in example 12.

BxPC3 [1] = assay: crystal violet assay, cellular viability, 48 hrs; details: Homo sapiens, BXPC-3
Procedure: as §1
(§2) Compounds 1, 2 and the comparative compound deferasirox were tested in their efficacy to suppress proliferation/kill several malignant cell lines of breast, pancreatic and ovarian origin (MCF7, MDA-MB-231, BxPC3 and OVCAR3). The procedure is identical to that in example 12.

OVCAR3 = assay: crystal violet assay, cellular viability, 48 hrs; details: Homo sapiens, OVCAR-3
Procedure: as §1, §2

T47D = assay: crystal violet assay, cellular viability, 48 hrs; details: T47D (parental/control)
Procedure: [The source words this procedure for another cell line and reports this cell line under the same test.] as §1, §2

[2] = test system: non-malignant fibroblasts (HFP1); assay: crystal violet assay, cellular viability, 48 hrs; details: Fibroblast
Procedure: [The source words this procedure for another cell line and reports this cell line under the same test.] as §1, §2

BxPC3 [3] = assay: annexin V/PI staining, cell death induction, 48 hrs; details: 500 μM
Procedure: (§3) This effect seems to be based mainly on the cytostatic effect of compound 1. To define the ability to kill cells, cell death-inducing potency (cytotoxic efficacy) of DFX and compound 1 have been tested via annexin V/PI staining commonly used as a measure of apoptotic/necrotic cell death. Briefly, cells were seeded in 12-well plate at 100,000 per well, incubated with the selected compounds for 48 hours, then floating cells were spun, adherent cells trypsinized and spun as well followed by the staining with AnnexinV-FITC and PI probes. Cells were then washed with PBS and measured via Fluorescence Activated Sorter.

OVCAR = assay: as above; details: 500 μM
Procedure: as §3

non malignant cells MRC5 = assay: as above; details: 500 μM
Procedure: as §3

non-malignant HFP1 cells = assay: as above; details: 500 μM, 48 hrs, HFP1
Procedure: as §3

[4] = test system: UPF16A leukemia cell line; assay: alamarBlue Cell Viability Reagent, 48 hrs; details: 48 hrs, UPF16A
Procedure: (§4) Compound 1 and a comparative compound deferasirox (DFX) were tested in their efficacy to kill/suppress proliferation of several leukemia cells. Briefly, 10.000 cells per well were seeded in a 96-well plate on one day and the next day the tested compounds were added and incubated with the cells for 48 hrs. Cellular viability was determined as the ability to reduce the probe alamarBlue™ Cell Viability Reagent.

UPF1H leukemia cell line [5] = assay: alamarBlue Cell Viability Reagent, 48 hrs; details: 48 hrs
Procedure: as §4

UPF4D leukemia cell line [6] = assay: alamarBlue Cell Viability Reagent, 48 hrs; details: 48 hrs, UPF4D
Procedure: as §4

UPF9T leukemia cell line [7] = assay: alamarBlue Cell Viability Reagent, 48 hrs; details: 48 hrs, UPF9T
Procedure: as §4

leukemia cells = assay: alamarBlue viability, leukemia cells overall; details: several leukemia cells, 48 hrs; read-out: IC50 (suppression of proliferation to 50%)
Procedure: as §4

[8] = test system: UPF16A leukemia cell line; assay: AnnexinV/PI assay, cell death induction, 48 hrs
Procedure: as §3
(§5) This effect seems to be based mainly on the cytostatic effect of compound 1. To define the ability to kill cells, cell death-inducing potency (cytotoxic efficacy) of DFX and compound 1 have been tested via annexin V/PI staining commonly used as a measure of apoptotic/necrotic cell death (see example 15). […] Compound 1 killed cancer cells with effects higher by almost 3 orders of magnitude than those of deferasirox. Such results are unprecedented and very unexpected.

UPF1H leukemia cell line [9] = assay: AnnexinV/PI assay, cell death induction, 48 hrs
Procedure: as §3, §5

UPF4D leukemia cell line [10] = assay: AnnexinV/PI assay, cell death induction, 48 hrs
Procedure: as §3, §5

UPF9T leukemia cell line [11] = assay: AnnexinV/PI assay, cell death induction, 48 hrs
Procedure: as §3, §5

[12] = 1 μM, read-out: viable cells compared to non-treated controls
[13] = 3 μM, read-out: viable cells compared to non-treated controls
[14] = 30 μM, read-out: viable cells compared to non-treated controls
[15] = 100 μM, read-out: viable cells compared to non-treated controls
[16] = 500 μM, read-out: viable cells compared to non-treated controls

IC50 (MDA-MB-231 cells; Homo sapiens, MDA-MB-231, 48 h): 70 µM
IC50 (MDA-MB-231 cells): 70 µM
IC50 (BxPC3 [1]): 22.9 µM
IC50 (OVCAR3): 19.2 µM
IC50 ([4]; alamarBlue, read-out: IC50): 7.6 µM
IC50 (UPF1H leukemia cell line [5]; alamarBlue, read-out: IC50): 9.6 µM
IC50 (UPF4D leukemia cell line [6]; alamarBlue, read-out: IC50): 4.92 µM
IC50 (UPF9T leukemia cell line [7]; alamarBlue, read-out: IC50): 80.2 µM
IC50 (leukemia cells): 5 to 80 µM
SMILES: O=C(O)c1ccc(-n2nc(-c3ccccc3O)nc2-c2ccccc2O)cc1 [DFX, deferasirox, reference compound]
viability at 1 µM (MCF7 cells; Homo sapiens, 1 μM, MCF7, read-out: viable cells compared to non-treated controls): 104%
viability at 3 µM (MCF7 cells; Homo sapiens, 3 μM, MCF7, read-out: viable cells compared to non-treated controls): 76%
viability at 10 µM (MCF7 cells; Homo sapiens, 10 μM, MCF7, read-out: viable cells compared to non-treated controls): 56.5%
viability at 30 µM (MCF7 cells; Homo sapiens, 30 μM, MCF7, read-out: viable cells compared to non-treated controls): 23.9%
IC50 (MCF7 cells; Homo sapiens, MCF7, 48 h): 10 µM
IC50 (MCF7 cells): 10.9 µM
viability at 1 µM (MDA-MB-231 cells; Homo sapiens, 1 μM, MDA-MB-231, read-out: viable cells compared to non-treated controls): 109%
viability at 3 µM (MDA-MB-231 cells; Homo sapiens, 3 μM, MDA-MB-231, read-out: viable cells compared to non-treated controls): 90.8%
viability at 10 µM (MDA-MB-231 cells; Homo sapiens, 10 μM, MDA-MB-231, read-out: viable cells compared to non-treated controls): 70.4%
viability at 30 µM (MDA-MB-231 cells; Homo sapiens, 30 μM, MDA-MB-231, read-out: viable cells compared to non-treated controls): 62.1%
viability at 100 µM (MDA-MB-231 cells; Homo sapiens, 100 μM, MDA-MB-231, read-out: viable cells compared to non-treated controls): 55.7%
viability at 300 µM (MDA-MB-231 cells; Homo sapiens, 300 μM, MDA-MB-231, read-out: viable cells compared to non-treated controls): 14.1%
IC50 (T47D; Homo sapiens, T47D, 48 h): 60.8 µM
IC50 (T47D): 60.8 µM
IC50 [2]: 37.9 µM
dead cells (AnnexinV/PI) (BxPC3 [3]): 45.8 (21.3) %
dead cells (AnnexinV/PI) (OVCAR): 59.7 (4.6) %
dead cells (AnnexinV/PI) (non malignant cells MRC5): 43.7 (7.7) %
dead cells (AnnexinV/PI) (non-malignant HFP1 cells): 35.6 (1.5) %
viability at 1 µM [4, 12]: 82.5%
viability at 3 µM [4, 13]: 61.3%
viability at 30 µM [4, 14]: 34.7%
viability at 100 µM [4, 15]: 10.6%
viability at 500 µM [4, 16]: 9.7%
viability at 1 µM (UPF1H leukemia cell line [5]; [12]): 94.3%
viability at 3 µM (UPF1H leukemia cell line [5]; [13]): 88%
viability at 30 µM (UPF1H leukemia cell line [5]; [14]): 7.3%
viability at 100 µM (UPF1H leukemia cell line [5]; [15]): 13.3%
viability at 500 µM (UPF1H leukemia cell line [5]; [16]): 22.4%
viability at 1 µM (UPF4D leukemia cell line [6]; [12]): 92.7%
viability at 3 µM (UPF4D leukemia cell line [6]; [13]): 61.9%
viability at 30 µM (UPF4D leukemia cell line [6]; [14]): 2.9%
viability at 100 µM (UPF4D leukemia cell line [6]; [15]): 4%
viability at 500 µM (UPF4D leukemia cell line [6]; [16]): 11.1%
viability at 1 µM (UPF9T leukemia cell line [7]; [12]): 90.8%
viability at 3 µM (UPF9T leukemia cell line [7]; [13]): 81.3%
viability at 30 µM (UPF9T leukemia cell line [7]; [14]): 49.2%
viability at 100 µM (UPF9T leukemia cell line [7]; [15]): 53.3%
viability at 500 µM (UPF9T leukemia cell line [7]; [16]): 39%
dead cells (AnnexinV/PI) ([8]; 1 μM): 13.7 (5.0) %
dead cells (AnnexinV/PI) ([8]; 10 μM): 48.4 (16.2) %
dead cells (AnnexinV/PI) (UPF1H leukemia cell line [9]; 1 μM): 9.9 (1.3) %
dead cells (AnnexinV/PI) (UPF1H leukemia cell line [9]; 10 μM): 95.8 (0.2) %
dead cells (AnnexinV/PI) (UPF4D leukemia cell line [10]; 1 μM): 16.9 (16.9) %
dead cells (AnnexinV/PI) (UPF4D leukemia cell line [10]; 10 μM): 77.3 (3.5) %
dead cells (AnnexinV/PI) (UPF9T leukemia cell line [11]; 1 μM): 13.7 (3.3) %
dead cells (AnnexinV/PI) (UPF9T leukemia cell line [11]; 10 μM): 46.6 (5.2) %
